Experimental findings from patent US6610853B1, “N-(phenylsulfonyl)picolinamide derivatives, process for producing the same, and herbicide” (Kureha Kagaku Kogyo K.K., priority 2000, dated 2003) are described below.

What all share (assay): Test on herbicidal activity by foliar application
Holding throughout (format): in vivo
Holding throughout (conditions): foliar spray, 1 kg/ha, plants at 1-2 leaf stage in pots, evaluated 14 days after spraying

One assay concerns Abutilon theophrasti. The method, then:
(§1) Test on Herbicidal Activity by Foliar Application: Herbicidal solutions of each test compounds, which were prepared by dissolving at predetermined concentrations such a wettable powder of the test compound as that described in the above Formulation Example, were sprayed at dosages of 1 kg/ha over foliar parts of Amaranthus retroflexus, Bidens pilosa, Sinapis arvensis, Stellaria media, Solanum nigrum, Abutilon theophrasti, Convolvulus arvensis, Matricaria chamomilla, Galium aparine, Veronica hederaefolia, and Setaria viridis (each test plant is 1-2 leaf stage) which were grown in pots. 14 days latter after spraying, its herbicidal activity was evaluated in accordance with the below-described system. Herbicidal Activity 1: less than 30% inhibition 2: 30% or more-50% inhibition 3: 50% or more-70% inhibition 4: 70% or more-90% inhibition 5: 90% or more inhibition

A further assay deals with Amaranthus retroflexus. As to the method:
as §1

In a further assay the test system is Bidens pilosa. The method, then:
as §1

The subject of the next assay is Convolvulus arvensis. The method, then:
as §1

The next assay deals with Galium aparine. As to the method:
as §1

For the next assay, the system named is Matricaria chamomilla. As to the method:
as §1

For another assay, the system named is Setaria viridis. The method, then:
as §1

A further assay relates to Sinapis arvensis. As to the method:
as §1

A further assay deals with Solanum nigrum. As to the method: as §1
For the next assay, the system named is Stellaria media. As to the method:
as §1

Another assay deals with Veronica hederaefolia. As to the method: as §1

Regarding `COc1ccc(C(=O)NS(=O)(=O)c2ccccc2C(F)(F)F)nc1` [Compound I-054, N-[(2-Trifluoromethylphenyl)sulfonyl]-5-methoxy-2-pyridinecarboxamide], the “Herbicidal activity, Abutilon theophrasti” value in the assay with Abutilon theophrasti is 2 (30% or more-50% inhibition). Besides, the “Herbicidal activity, Amaranthus retroflexus” value in the assay on Amaranthus retroflexus was 3 (50% or more-70% inhibition). The “Herbicidal activity, Bidens pilosa” value in the assay on Bidens pilosa is recorded as 5 (90% or more inhibition). Also, the “Herbicidal activity, Convolvulus arvensis” value with Convolvulus arvensis is recorded as 3 (50% or more-70% inhibition). Also, in the assay on Galium aparine, the “Herbicidal activity, Galium aparine” value is listed as 4 (70% or more-90% inhibition). In addition, in the assay with Matricaria chamomilla, the “Herbicidal activity, Matricaria chamomilla” value is given as 5 (90% or more inhibition). The “Herbicidal activity, Setaria viridis” value with Setaria viridis is given as 5 (90% or more inhibition). Besides, in the assay with Sinapis arvensis, the “Herbicidal activity, Sinapis arvensis” value was 5 (90% or more inhibition). In addition, the “Herbicidal activity, Solanum nigrum” value in the assay on Solanum nigrum was 4 (70% or more-90% inhibition). In addition, the “Herbicidal activity, Stellaria media” value with Stellaria media is listed as 5 (90% or more inhibition). Also, the “Herbicidal activity, Veronica hederaefolia” value in the assay on Veronica hederaefolia is given as 4 (70% or more-90% inhibition).

As to `COC(=O)c1ccccc1S(=O)(=O)NC(=O)c1cc(Cl)cc(OC)n1` [Compound I-221, 2-[[[(4-Chloro-6-methoxypyridin-2-yl)carbonyl]-amino]sulfonyl]benzoic Acid Methyl Ester], the “Herbicidal activity, Abutilon theophrasti” value in the assay with Abutilon theophrasti is given as 4 (70% or more-90% inhibition). Also, in the assay on Amaranthus retroflexus, the “Herbicidal activity, Amaranthus retroflexus” value is 5 (90% or more inhibition). The “Herbicidal activity, Bidens pilosa” value in the assay with Bidens pilosa was 4 (70% or more-90% inhibition). In addition, in the assay with Convolvulus arvensis, the “Herbicidal activity, Convolvulus arvensis” value is 4 (70% or more-90% inhibition). In addition, in the assay with Galium aparine, the “Herbicidal activity, Galium aparine” value was 5 (90% or more inhibition). For the same compound, the “Herbicidal activity, Matricaria chamomilla” value in the assay on Matricaria chamomilla is 2 (30% or more-50% inhibition). Moreover, in the assay with Setaria viridis, the “Herbicidal activity, Setaria viridis” value is on record as 3 (50% or more-70% inhibition). The “Herbicidal activity, Sinapis arvensis” value in the assay on Sinapis arvensis is 5 (90% or more inhibition). Further, in the assay on Solanum nigrum, the “Herbicidal activity, Solanum nigrum” value is listed as 5 (90% or more inhibition). Besides, in the assay on Stellaria media, the “Herbicidal activity, Stellaria media” value was 4 (70% or more-90% inhibition). Also, the “Herbicidal activity, Veronica hederaefolia” value with Veronica hederaefolia is listed as 4 (70% or more-90% inhibition).

On to `COC(=O)c1ccccc1S(=O)(=O)NC(=O)c1cccc(Cl)n1` [Compound I-231, 2-[[[(6-Chloropyridin-2-yl)carbonyl]amino]-sulfonyl]benzoic Acid Methyl Ester], for which, in the assay on Abutilon theophrasti, the “Herbicidal activity, Abutilon theophrasti” value is 5 (90% or more inhibition). Further, the “Herbicidal activity, Amaranthus retroflexus” value in the assay on Amaranthus retroflexus is reported as 5 (90% or more inhibition). The “Herbicidal activity, Bidens pilosa” value with Bidens pilosa is 5 (90% or more inhibition). The “Herbicidal activity, Convolvulus arvensis” value in the assay on Convolvulus arvensis is listed as 4 (70% or more-90% inhibition). Moreover, in the assay on Galium aparine, the “Herbicidal activity, Galium aparine” value is 5 (90% or more inhibition). The “Herbicidal activity, Matricaria chamomilla” value with Matricaria chamomilla is reported as 5 (90% or more inhibition). Further, the “Herbicidal activity, Setaria viridis” value with Setaria viridis is given as 5 (90% or more inhibition). Besides, the “Herbicidal activity, Sinapis arvensis” value in the assay on Sinapis arvensis is on record as 5 (90% or more inhibition). The “Herbicidal activity, Solanum nigrum” value in the assay with Solanum nigrum is recorded as 5 (90% or more inhibition). In the assay on Stellaria media, the “Herbicidal activity, Stellaria media” value is 5 (90% or more inhibition). In the assay on Veronica hederaefolia, the “Herbicidal activity, Veronica hederaefolia” value was 5 (90% or more inhibition).

On to `COC(=O)c1ccccc1S(=O)(=O)NC(=O)c1ccc(OC)cn1` [Compound I-234, 2-[[[(5-Methoxypyridin-2-yl)carbonyl]amino]-sulfonyl]benzoic Acid Methyl Ester], for which the “Herbicidal activity, Abutilon theophrasti” value with Abutilon theophrasti is listed as 5 (90% or more inhibition). In addition, the “Herbicidal activity, Amaranthus retroflexus” value in the assay with Amaranthus retroflexus is 5 (90% or more inhibition). The “Herbicidal activity, Bidens pilosa” value in the assay on Bidens pilosa is listed as 5 (90% or more inhibition). For the same compound, the “Herbicidal activity, Convolvulus arvensis” value in the assay with Convolvulus arvensis was 4 (70% or more-90% inhibition). Also, the “Herbicidal activity, Galium aparine” value in the assay on Galium aparine was 4 (70% or more-90% inhibition). For the same compound, the “Herbicidal activity, Matricaria chamomilla” value in the assay on Matricaria chamomilla was 5 (90% or more inhibition). In the assay with Setaria viridis, the “Herbicidal activity, Setaria viridis” value was 4 (70% or more-90% inhibition). Also, in the assay on Sinapis arvensis, the “Herbicidal activity, Sinapis arvensis” value is on record as 5 (90% or more inhibition). In addition, in the assay with Solanum nigrum, the “Herbicidal activity, Solanum nigrum” value is recorded as 5 (90% or more inhibition). In addition, the “Herbicidal activity, Stellaria media” value with Stellaria media is reported as 5 (90% or more inhibition). Besides, in the assay with Veronica hederaefolia, the “Herbicidal activity, Veronica hederaefolia” value is recorded as 4 (70% or more-90% inhibition).

Regarding `COC(=O)c1ccccc1S(=O)(=O)NC(=O)c1cc(OC)cc(C)n1` [Compound I-254, 2-[[[(4-Methoxy-6-methylpyridin-2-yl)carbonyl]-amino]sulfonyl]benzoic Acid Methyl Ester], in the assay with Abutilon theophrasti, the “Herbicidal activity, Abutilon theophrasti” value is 5 (90% or more inhibition). Moreover, the “Herbicidal activity, Amaranthus retroflexus” value in the assay on Amaranthus retroflexus is reported as 5 (90% or more inhibition). Besides, in the assay with Bidens pilosa, the “Herbicidal activity, Bidens pilosa” value is on record as 5 (90% or more inhibition). The “Herbicidal activity, Convolvulus arvensis” value in the assay with Convolvulus arvensis is 3 (50% or more-70% inhibition). Besides, in the assay with Galium aparine, the “Herbicidal activity, Galium aparine” value is 5 (90% or more inhibition). Further, in the assay on Matricaria chamomilla, the “Herbicidal activity, Matricaria chamomilla” value is reported as 3 (50% or more-70% inhibition). Besides, the “Herbicidal activity, Setaria viridis” value in the assay on Setaria viridis is reported as 4 (70% or more-90% inhibition). In addition, the “Herbicidal activity, Sinapis arvensis” value with Sinapis arvensis is reported as 5 (90% or more inhibition). The “Herbicidal activity, Solanum nigrum” value in the assay on Solanum nigrum is given as 5 (90% or more inhibition). The “Herbicidal activity, Stellaria media” value in the assay with Stellaria media is on record as 5 (90% or more inhibition). Besides, in the assay with Veronica hederaefolia, the “Herbicidal activity, Veronica hederaefolia” value was 5 (90% or more inhibition).

`COC(=O)c1ccccc1S(=O)(=O)NC(=O)c1cc(OC)cc(Cl)n1` [Compound I-255, 2-[[[(6-Chloro-4-methoxypyridin-2-yl)carbonyl]-amino]sulfonyl]benzoic Acid Methyl Ester]: in the assay with Abutilon theophrasti, the “Herbicidal activity, Abutilon theophrasti” value is 5 (90% or more inhibition). In the assay on Amaranthus retroflexus, the “Herbicidal activity, Amaranthus retroflexus” value is recorded as 4 (70% or more-90% inhibition). Further, the “Herbicidal activity, Bidens pilosa” value with Bidens pilosa was 5 (90% or more inhibition). Besides, the “Herbicidal activity, Convolvulus arvensis” value with Convolvulus arvensis is 5 (90% or more inhibition). Moreover, the “Herbicidal activity, Galium aparine” value in the assay on Galium aparine is given as 5 (90% or more inhibition). Further, the “Herbicidal activity, Matricaria chamomilla” value in the assay with Matricaria chamomilla is given as 5 (90% or more inhibition). Further, in the assay on Setaria viridis, the “Herbicidal activity, Setaria viridis” value is given as 4 (70% or more-90% inhibition). Moreover, the “Herbicidal activity, Sinapis arvensis” value in the assay with Sinapis arvensis is given as 5 (90% or more inhibition). In addition, the “Herbicidal activity, Solanum nigrum” value with Solanum nigrum is given as 5 (90% or more inhibition). In the assay with Stellaria media, the “Herbicidal activity, Stellaria media” value is reported as 5 (90% or more inhibition). Moreover, the “Herbicidal activity, Veronica hederaefolia” value with Veronica hederaefolia is 5 (90% or more inhibition).

Turning to `COC(=O)c1ccccc1S(=O)(=O)NC(=O)c1ccc(OC)c(Cl)n1` [Compound I-258, 2-[[[(6-Chloro-5-methoxypyridin-2-yl)carbonyl]-amino]sulfonyl]benzoic Acid Methyl Ester], in the assay with Abutilon theophrasti, the “Herbicidal activity, Abutilon theophrasti” value is 5 (90% or more inhibition). The “Herbicidal activity, Amaranthus retroflexus” value in the assay with Amaranthus retroflexus is 5 (90% or more inhibition). The “Herbicidal activity, Bidens pilosa” value in the assay on Bidens pilosa is recorded as 5 (90% or more inhibition). In the assay with Convolvulus arvensis, the “Herbicidal activity, Convolvulus arvensis” value is on record as 5 (90% or more inhibition). The “Herbicidal activity, Galium aparine” value with Galium aparine is listed as 5 (90% or more inhibition). Besides, the “Herbicidal activity, Matricaria chamomilla” value with Matricaria chamomilla is listed as 5 (90% or more inhibition). Besides, the “Herbicidal activity, Setaria viridis” value in the assay on Setaria viridis is given as 5 (90% or more inhibition). In the assay with Sinapis arvensis, the “Herbicidal activity, Sinapis arvensis” value is on record as 5 (90% or more inhibition). The “Herbicidal activity, Solanum nigrum” value with Solanum nigrum is reported as 5 (90% or more inhibition). Also, the “Herbicidal activity, Stellaria media” value with Stellaria media is listed as 5 (90% or more inhibition). Besides, the “Herbicidal activity, Veronica hederaefolia” value with Veronica hederaefolia is on record as 4 (70% or more-90% inhibition).

On to `COC(=O)c1ccccc1S(=O)(=O)NC(=O)c1ccc(OC)c(OC)n1` [Compound I-259, 2-[[[(5,6-Dimethoxypyridin-2-yl)carbonyl]-amino]sulfonyl]benzoic Acid Methyl Ester], for which, in the assay on Abutilon theophrasti, the “Herbicidal activity, Abutilon theophrasti” value is reported as 5 (90% or more inhibition). In addition, the “Herbicidal activity, Amaranthus retroflexus” value in the assay on Amaranthus retroflexus was 5 (90% or more inhibition). The “Herbicidal activity, Bidens pilosa” value in the assay on Bidens pilosa is recorded as 4 (70% or more-90% inhibition). Further, in the assay on Convolvulus arvensis, the “Herbicidal activity, Convolvulus arvensis” value is reported as 3 (50% or more-70% inhibition). The “Herbicidal activity, Galium aparine” value with Galium aparine is recorded as 5 (90% or more inhibition). Also, the “Herbicidal activity, Matricaria chamomilla” value in the assay with Matricaria chamomilla is recorded as 4 (70% or more-90% inhibition). Besides, in the assay on Setaria viridis, the “Herbicidal activity, Setaria viridis” value was 4 (70% or more-90% inhibition). The “Herbicidal activity, Sinapis arvensis” value in the assay with Sinapis arvensis was 5 (90% or more inhibition). The “Herbicidal activity, Solanum nigrum” value in the assay on Solanum nigrum is given as 4 (70% or more-90% inhibition). Besides, in the assay on Stellaria media, the “Herbicidal activity, Stellaria media” value is on record as 5 (90% or more inhibition). Moreover, in the assay on Veronica hederaefolia, the “Herbicidal activity, Veronica hederaefolia” value was 4 (70% or more-90% inhibition).
